ChEMBL document CHEMBL3112584, “Urokinase-type plasminogen activator expression and Rac1/WAVE-2/Arp2/3 pathway are blocked by pterostilbene to suppress cell migration and invasion in MDA-MB-231 cells” (Bioorg Med Chem Lett, 2014)
Calls of active or inactive are those of the source. The calls are words filed in the database; no cut-off is given here.

What was measured:
[1] = molecular target: Ras-related C3 botulinum toxin substrate 1 (Homo sapiens) (UniProt P63000); assay: Inhibition of Rac1-mediated WAVE-2/Arp2/3 expression in human MDA-MB-231 cells after […] by Western blotting analysis; type: cell-based
[2] = molecular target: Ras-related C3 botulinum toxin substrate 1 (Homo sapiens) (UniProt P63000); assay: Inhibition of Rac1 in human MDA-MB-231 cells at 10 uM after 30 mins by G-LISA activity assay; type: cell-based
[3] = molecular target: Ras-related C3 botulinum toxin substrate 1 (Homo sapiens) (UniProt P63000); assay: Inhibition of Rac1 in human MDA-MB-231 cells at 5 uM after 30 mins by G-LISA activity assay; type: cell-based
[4] = molecular target: Ras-related C3 botulinum toxin substrate 1 (Homo sapiens) (UniProt P63000); assay: Inhibition of Rac1 in human MDA-MB-231 cells at 2 uM after 30 mins by G-LISA activity assay; type: cell-based
Homo sapiens = species: Homo sapiens; assay: Inhibition of DNA binding of NF-kappaB (unknown origin) on uPA promoter at 10 uM by ChIP assay
MDA-MB-231 [5] = assay: Inhibition of NF-kappaB activation in human MDA-MB-231 cells after 24 hrs by luciferase assay; type: cell-based
[6] = molecular target: Urokinase-type plasminogen activator (Homo sapiens) (UniProt P00749); assay: Inhibition of uPA activity in human MDA-MB-231 cells at 10 uM; type: cell-based; parameters: scale not given: the % may be the effect or the level left
[7] = molecular target: Urokinase-type plasminogen activator (Homo sapiens) (UniProt P00749); assay: Inhibition of uPA activity in human MDA-MB-231 cells at 5 uM; type: cell-based; parameters: scale not given: the % may be the effect or the level left
MDA-MB-231 [8] = assay: Down-regulation of uPAR mRNA expression in human MDA-MB-231 cells at 2 to 10 uM after 24 hrs by RT-PCR analysis; type: functional, cell-based
MDA-MB-231 [9] = assay: Down-regulation of uPA mRNA expression in human MDA-MB-231 cells after 24 hrs by RT-PCR analysis; type: functional, cell-based
MDA-MB-231 [10] = assay: Antiinvasion activity in human MDA-MB-231 cells reduction of cell assessed as inhibition of FBS-induced cell invaded to lower surface at 10 uM after 24 hrs; type: functional; conditions: MDA-MB-231, 24 h
MDA-MB-231 [11] = assay: Antiinvasion activity in human MDA-MB-231 cells reduction of cell assessed as inhibition of FBS-induced cell invaded to lower surface at 5 uM after 24 hrs; type: functional; conditions: MDA-MB-231, 24 h
MDA-MB-231 [12] = assay: Antiinvasion activity in human MDA-MB-231 cells reduction of cell assessed as inhibition of FBS-induced cell invaded to lower surface at 2 uM after 24 hrs; type: functional; conditions: MDA-MB-231, 24 h
MDA-MB-231 [13] = assay: Inhibition of cell migration in human MDA-MB-231 cells assessed as reduction of cell migrated into scratched area at 10 uM after 24 hrs by wound healing assay; type: functional; conditions: MDA-MB-231, 24 h
MDA-MB-231 [14] = assay: Inhibition of cell migration in human MDA-MB-231 reduction of cell assessed as cells migrated into scratched area at 5 uM after 24 hrs by wound healing assay; type: functional; conditions: MDA-MB-231, 24 h
MDA-MB-231 [15] = assay: Inhibition of cell migration in human MDA-MB-231 cells reduction of cell assessed as cells migrated into scratched area at 2 uM after 24 hrs by wound healing assay; type: functional; conditions: MDA-MB-231, 24 h
MDA-MB-231 [16] = assay: Cytotoxicity against human MDA-MB-231 cells assessed as cell viability up to 10 uM after 24 hrs by MTT assay relative to control; type: cell-based; conditions: mda-mb-231, 24 h
[17] = Cytotoxicity against human MDA-MB-231 cells assessed as cell viability at 40 uM after 24 hrs by MTT assay relative to control; type: cell-based; conditions: read-out: Activity

With `COc1cc(/C=C/c2ccc(O)cc2)cc(OC)c1` [PTEROSTILBENE] the inhibition [1] was “Dose-dependent effect”, the inhibition [2] was 27% and the inhibition [3] was 22%. For the same compound, the inhibition [4] was 14%, the inhibition (Homo sapiens) was “Active” and the inhibition (MDA-MB-231 [5]) was “Dose-dependent effect”. The Activity [6] was 61%, the Activity [7] was 25% and the Activity (MDA-MB-231 [8]) was “inactive”. For the same compound, the Activity (MDA-MB-231 [9]) was “Dose-dependent effect”, the inhibition at 10 µM (MDA-MB-231 [10]) was 38% and the inhibition at 5 µM (MDA-MB-231 [11]) was 29%. The inhibition at 2 µM (MDA-MB-231 [12]) was 20%, the inhibition at 10 µM (MDA-MB-231 [13]) was 76% and the inhibition at 5 µM (MDA-MB-231 [14]) was 59%. The inhibition at 2 µM (MDA-MB-231 [15]) was 25%, the Activity (MDA-MB-231 [16]) was “Non-toxic” and the viability at 24 h, 40 µM [17] was 40%.
